Experimental data from PubChem BioAssay AID1963863 (Molecular Pharmacology Branch, DTP, NCI, 2024).

Tested on: 931267-113-T-J1-PDC KRAS spheroid with HUVEC/MSC, viability
Experiment: Anticancer human tumor 931267-113-T-J1-PDC patient-derived colon adenocarcinoma cell line growth inhibition [KRAS2]
Conditions: for IC50: curve of first compound; for viability, T/C: stronger effect = lower value
Procedure, shortened: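 KRAS-mutant tumor cells were grown as spheroids with HUVEC endothelial cells and human MSCs as stroma. Targeted agents were tested alone and with KRAS pathway inhibitors. Doses started at or near clinical Cmax, or 10 microM, descending half-log.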

[1] = second compound 0.0316 µM, first compound 0.0316 µM
[2] = second compound 0.0316 µM, first compound 0.1 µM
[3] = second compound 0.0316 µM, first compound 0.316 µM
[4] = second compound 0.0316 µM, first compound 1 µM
[5] = second compound 0.0316 µM, first compound 3.16 µM
[6] = second compound 0.0316 µM, first compound 10 µM
[7] = second compound 0.1 µM, first compound 0.0316 µM
[8] = second compound 0.1 µM, first compound 0.1 µM
[9] = second compound 0.1 µM, first compound 0.316 µM
[10] = second compound 0.1 µM, first compound 1 µM
[11] = second compound 0.1 µM, first compound 3.16 µM
[12] = second compound 0.1 µM, first compound 10 µM
[13] = second compound 0.316 µM, first compound 0.0316 µM
[14] = second compound 0.316 µM, first compound 0.1 µM
[15] = second compound 0.316 µM, first compound 0.316 µM
[16] = second compound 0.316 µM, first compound 1 µM
[17] = second compound 0.316 µM, first compound 3.16 µM
[18] = second compound 0.316 µM, first compound 10 µM
[19] = second compound 1 µM, first compound 0.0316 µM
[20] = second compound 1 µM, first compound 0.1 µM
[21] = second compound 1 µM, first compound 0.316 µM
[22] = second compound 1 µM, first compound 1 µM
[23] = second compound 1 µM, first compound 3.16 µM
[24] = second compound 1 µM, first compound 10 µM
[25] = second compound 3.16 µM, first compound 0.0316 µM
[26] = second compound 3.16 µM, first compound 0.1 µM
[27] = second compound 3.16 µM, first compound 0.316 µM
[28] = second compound 3.16 µM, first compound 1 µM
[29] = second compound 3.16 µM, first compound 3.16 µM
[30] = second compound 3.16 µM, first compound 10 µM
[31] = second compound 0.0316 µM, first compound 0.01 µM
[32] = second compound 0.1 µM, first compound 0.01 µM
[33] = second compound 0.316 µM, first compound 0.01 µM
[34] = second compound 1 µM, first compound 0.01 µM
[35] = second compound 3.16 µM, first compound 0.01 µM
[36] = second compound 0.0316 µM, first compound 0.00316 µM
[37] = second compound 0.1 µM, first compound 0.00316 µM
[38] = second compound 0.316 µM, first compound 0.00316 µM
[39] = second compound 1 µM, first compound 0.00316 µM
[40] = second compound 3.16 µM, first compound 0.00316 µM
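Further: compound exposure lasted 7 days before the readout.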
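Wherever viability, T/C is given: 100% = DMSO vehicle control viability.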

Row | SMILES | IC50 (second compound 0.0316 µM) | IC50 (second compound 0.1 µM) | IC50 (second compound 0.316 µM) | IC50 (second compound 1 µM) | IC50 (second compound 3.16 µM) | viability, T/C [1] | viability, T/C [2] | viability, T/C [3] | viability, T/C [4] | viability, T/C [7] | viability, T/C [8] | viability, T/C [9] | viability, T/C [10] | viability, T/C [13] | viability, T/C [14] | viability, T/C [15] | viability, T/C [19] | viability, T/C [20] | viability, T/C [25] | viability, T/C [26] | other results
1 | CC(C)NCC(C(=O)N1CCN(c2ncnc3c2C(C)CC3O)CC1)c1ccc(Cl)cc1 (stereo not given) + C=CC(=O)N1CCN(c2nc(OCC3CCCN3C)nc3c2CCN(c2cccc4cccc(C)c24)C3)CC1CC#N | > 10000 nM | 6280 nM | 5100 nM | 1810 nM | < 31.6 nM | 111% | 86% | 72.4% | 79.8% | 96.8% | 86.4% | 83.1% | 101% | 100% | 89.6% | 95.4% | 79.4% | 83.1% | 1.12% | 0.47% | viability, T/C [5]: 64.3%; viability, T/C [6]: 50%; viability, T/C [11]: 62.1%; viability, T/C [12]: 41.8%; viability, T/C [16]: 64.7%; viability, T/C [17]: 73%; viability, T/C [18]: 30.4%; viability, T/C [21]: 64.5%; viability, T/C [22]: 60.1%; viability, T/C [23]: 42.2%; viability, T/C [24]: 18.4%; viability, T/C [27]: 0.29%; viability, T/C [28]: 0.37%; viability, T/C [29]: 0.61%; viability, T/C [30]: 0.46%
2 | CC1(C)CCC(CN2CCN(c3ccc(C(=O)NS(=O)(=O)c4ccc(NCC5CCOCC5)c([N+](=O)[O-])c4)c(Oc4cnc5[nH]ccc5c4)c3)CC2)=C(c2ccc(Cl)cc2)C1 + C=CC(=O)N1CCN(c2nc(OCC3CCCN3C)nc3c2CCN(c2cccc4cccc(C)c24)C3)CC1CC#N | 1960 nM | 2360 nM | 1900 nM | 1550 nM | < 31.6 nM | 107% | 93.6% | 102% | 83% | 110% | 120% | 97.5% | 106% | 114% | 94.8% | 89.3% | 102% | 84.3% | 0.38% | 0.51% | viability, T/C [5]: 26.2%; viability, T/C [6]: 0.37%; viability, T/C [11]: 31%; viability, T/C [12]: 0.82%; viability, T/C [16]: 94.6%; viability, T/C [17]: 14.8%; viability, T/C [18]: 0.28%; viability, T/C [21]: 94.5%; viability, T/C [22]: 78%; viability, T/C [23]: 4.65%; viability, T/C [24]: 0.18%; viability, T/C [27]: 0.75%; viability, T/C [28]: 0.2%; viability, T/C [29]: 0.34%; viability, T/C [30]: 0.26%
3 | CC1COCCN1c1cc(-c2ccnn2C)c2ccnc(-c3ccn[nH]3)c2n1 (stereo not given) + C=CC(=O)N1CCN(c2nc(OCC3CCCN3C)nc3c2CCN(c2cccc4cccc(C)c24)C3)CC1CC#N | 44.1 nM | 45.4 nM | 39.8 nM | 25.6 nM | < 10 nM | 59% | 27.8% | 19.2% | 18.1% | 62.8% | 22.2% | 18.6% | 21.6% | 56.4% | 24.7% | 16.8% | 41.3% | 12% | 0.19% | 0.38% | viability, T/C [31]: 90.9%; viability, T/C [5]: 18%; viability, T/C [32]: 122%; viability, T/C [11]: 21.5%; viability, T/C [33]: 75.6%; viability, T/C [16]: 18.9%; viability, T/C [17]: 24.5%; viability, T/C [34]: 88.9%; viability, T/C [21]: 12.8%; viability, T/C [22]: 21.3%; viability, T/C [23]: 24.1%; viability, T/C [35]: 0.25%; viability, T/C [27]: 0.14%; viability, T/C [28]: 0.14%; viability, T/C [29]: 0.94%
4 | CCN1CCN(Cc2ccc(Nc3ncc(F)c(-c4cc(F)c5nc(C)n(C(C)C)c5c4)n3)nc2)CC1 + C=CC(=O)N1CCN(c2nc(OCC3CCCN3C)nc3c2CCN(c2cccc4cccc(C)c24)C3)CC1CC#N | > 1000 nM | 549 nM | > 1000 nM | 734 nM | < 3.16 nM | 70.7% | 67.8% | 65.7% | 54% | 68.2% | 67.4% | 61.8% | 39.7% | 64.3% | 60% | 64.6% | 77.3% | 82.4% | 0.2% | 0.23% | viability, T/C [36]: 108%; viability, T/C [31]: 86%; viability, T/C [37]: 83.8%; viability, T/C [32]: 72.2%; viability, T/C [38]: 93.7%; viability, T/C [33]: 84.2%; viability, T/C [16]: 48.6%; viability, T/C [39]: 73.8%; viability, T/C [34]: 74.2%; viability, T/C [21]: 61.2%; viability, T/C [22]: 45.9%; viability, T/C [40]: 0.66%; viability, T/C [35]: 2.55%; viability, T/C [27]: 0.3%; viability, T/C [28]: 0.21%
5 | CCNC(=O)CC1N=C(c2ccc(Cl)cc2)c2cc(OC)ccc2-n2c(C)nnc21 (stereo not given) + C=CC(=O)N1CCN(c2nc(OCC3CCCN3C)nc3c2CCN(c2cccc4cccc(C)c24)C3)CC1CC#N | 3970 nM | 2560 nM | 1430 nM | 1030 nM | < 31.6 nM | 92% | 80.3% | 80.2% | 51.9% | 92.5% | 81.4% | 70.1% | 60.6% | 72.4% | 74.7% | 66.5% | 82.1% | 69.1% | 0.31% | 0.3% | viability, T/C [5]: 61%; viability, T/C [6]: 38.1%; viability, T/C [11]: 45.4%; viability, T/C [12]: 41.6%; viability, T/C [16]: 52.9%; viability, T/C [17]: 43.7%; viability, T/C [18]: 38.9%; viability, T/C [21]: 61.1%; viability, T/C [22]: 51.1%; viability, T/C [23]: 39.6%; viability, T/C [24]: 31.5%; viability, T/C [27]: 0.26%; viability, T/C [28]: 0.17%; viability, T/C [29]: 0.16%; viability, T/C [30]: 0.17%
6 | Cn1ncnc1[C@H]1c2n[nH]c(=O)c3cc(F)cc(c23)N[C@@H]1c1ccc(F)cc1 + C=CC(=O)N1CCN(c2nc(OCC3CCCN3C)nc3c2CCN(c2cccc4cccc(C)c24)C3)CC1CC#N | > 100 nM | > 100 nM | > 100 nM | > 100 nM | < 0.316 nM | 77.2% | 80.7% | – | – | 78.2% | 67.3% | – | – | 69.8% | 66.3% | – | 68.8% | 69.9% | 0.64% | 8.16% | viability, T/C (second compound 0.0316 µM, first compound 0.000316 µM): 118%; viability, T/C (second compound 0.0316 µM, first compound 0.001 µM): 89.7%; viability, T/C [36]: 90%; viability, T/C [31]: 75.5%; viability, T/C (second compound 0.1 µM, first compound 0.000316 µM): 102%; viability, T/C (second compound 0.1 µM, first compound 0.001 µM): 90.9%; viability, T/C [37]: 69.8%; viability, T/C [32]: 77.9%; viability, T/C (second compound 0.316 µM, first compound 0.000316 µM): 89.9%; viability, T/C (second compound 0.316 µM, first compound 0.001 µM): 66.3%; viability, T/C [38]: 89.9%; viability, T/C [33]: 86%; viability, T/C (second compound 1 µM, first compound 0.000316 µM): 76%; viability, T/C (second compound 1 µM, first compound 0.001 µM): 76.5%; viability, T/C [39]: 68.5%; viability, T/C [34]: 80.8%; viability, T/C (second compound 3.16 µM, first compound 0.000316 µM): 1.48%; viability, T/C (second compound 3.16 µM, first compound 0.001 µM): 4.65%; viability, T/C [40]: 3.13%; viability, T/C [35]: 15.2%
